Assay results reported in PMC10895678 (Journal of Medicinal Chemistry, 2024).
Several values for one entry are separate records, joined by “and”; a condition that tells them apart may be missing. Equal values may be shown once. Read-outs that look alike come from different tables or passages of the source.

Columns and labels:
C. glutamicum pks13 = assay: MIC, resazurin assay, C. glutamicum pks13 deletion mutant; type: cell-based, Corynebacterium glutamicum; details: modified Gompertz function
[1] = Mouse PK, combined (cassette) dosing of BGAz-001–005; type: in vivo, KM mice; parameters: AUMC(0-t) / VRT(0-t) / λz: unit not given here; details: for AUC(0-t): read-out: AUC(0-t); for MRT last: read-out: MRT(0-t); for MRT inf: read-out: MRT(0-∞); for Vd/F: read-out: Vz/F
Excerpt: Methods for combined single dosing (BGAz001–005) and dosing of single compounds multiple times (BGAz004 and BGAz005) are described in detail in the Supporting Information (PK Data).
Report on PK Results of Combined Dosing with BGAz-001–005
1 Materials and instrument combined dosing
An MS2 Turnover type oscillator was purchased from IKA Work’s Guangzhou (China), and a 5415R ChromatographicanalyseswereconductedusinganAgilent1290InfinityIIhighperformanceliquidchromatography andAgilentTechnologies6470TripleQuadLC/MS.Propranolol(≥90%inpurity,internalstandard,IS)waspurchased fromtheSigmaChemicalCo.(China).Formicacid(HPLCgrade)andmethanol(HPLCgrade)werepurchasedfrom DIKMACo.(China).Allchemicalsandsolventswereanalyticalgrade.WaterwaspurifiedusingaMillipore(AK,USA) laboratoryultra-purewatersystem(0.2μmfilter).
KMmice,weighing25–35g(BeijingVitalRiverLaboratoryAnimalTechnologyCo.,Ltd.,China)wereutilisedforthe studies.The protocols were approved by the Animal Care and Use Committee, GIBH. Animals were maintained on standard animal chow and waterad libitum, in a climate-controlled room (23±1 °C 30–70% relative humidity, a minimumof tenexchangesof roomairperhouranda12hlight/darkcycle)foroneweekpriortoexperiments.
3 Pharmacokinetic studies
Compounds BGAz-001 ，BGAz-002 ，BGAz-003 ，BGAz-004 and BGAz-005 were dissolved mixed in a solution containing DMSO (2%),ethanol (4%), Cremophor EL (4%) and ddH2O (90%); Pharmacokinetic propertiesof KM (male) were determined following IV, PO and IP administration. Animals were randomly distributed into three experimentalgroups(n=4).ThePOgroupwasgivenmixedsolutionwith5mg/kgbygastricgavage.TheIVgroup was dosed with mixed solution 1mg/kg byinjection into the tail vein. The IP group was dosed with mixed solution 1mg/kg by intraperitoneal injection. After single administration, whole blood samples (100 μL) were obtained from the orbital venousplexus atthe followingtime pointsafter dosing:5, 15,30 minand 1,3, 5,8, 24hour (PO and IP groups) and at the following time points after dosing 2, 10, 30min and 1, 3, 5, 8,24 hour (IV group). Wholeblood samples were collected in heparinised tubes. The plasma fraction was immediately separated by centrifugation. The micewerehumanelyeuthanasiabycarbondioxide24hoursafterexperimentwithoutpain.
4 Plasma sample and brain sample analysis
4.1 Standard curve sample preparation
ThecompoundsweredissolvedinDMSO(2mg/mL)anddilutedwithtoseriesconcentration(methanol:H 2O,1:1,10 μL) and blank plasma (50 μL) were added to 1.5 mL tubes and vortexed for 3 min, then acetonitrile-containing internalstandard(150μL)wasaddedandvortexedforafurther5min,andsubsequentlyspuninacentrifugeat13000 […]
4.2 Plasma and preparation
Plasmasampleswerepreparedusingaproteinprecipitationmethod.Solution(10μL,methanolH 2O,1:1)andplasma samples(50μL)wereaddedto1.5mLtubesandvortexfor3min,thenacetonitrile-containinginternalstandard(150 μL)wasaddedandvortexfor5min,andsubsequentlyspuninacentrifugeat13000× gfor40minat4°C.
Aftercentrifugation,supernatant(100μL)wastransferto96wellplatesandanalysedbyLC-MS/MSusinganAgilent 1290InfinityIIHPLCandanAgilentTechnologies6470TripleQuadLC/MS.

[2] = IP 1 mg/kg, cassette, mean of animals
[3] = IV 1 mg/kg, cassette, mean of animals
[4] = PO 5 mg/kg, cassette, mean of animals
[5] = male, KM, mouse, plasma, IP 1 mg/kg, cassette
[6] = male, KM, mouse, plasma, IP 1 mg/kg, cassette, mean of animals
[7] = male, KM, mouse, plasma, IV 1 mg/kg, cassette
[8] = male, KM, mouse, plasma, IV 1 mg/kg, cassette, mean of animals
[9] = male, KM, mouse, plasma, PO 5 mg/kg, cassette
[10] = male, KM, mouse, plasma, PO 5 mg/kg, cassette, mean of animals

With `Brc1cc(Br)cc(C2CC(CN3CCCC3)N2Cc2ccccc2Br)c1` (stereo not shown) [BGAz-004] the “C. glutamicum pks13 MIC” value (C. glutamicum pks13) was 10, the “AUMC(0-t)” value [1, 2] was 3591.68 **μg and the “AUMC(0-∞)” value [1, 2] was 7580.816 **μg. The CLz/F [1, 2] was 1.737 L/kg, the C_last [1, 2] was 7.173 µg and the “R_AUC(t/∞)” value [1, 2] was 82.475%. For the same compound, the “VRT(0-t)” value [1, 2] was 44.576 ^2, the “VRT(0-∞)” value [1, 2] was 210.175 ^2 and the λz [1, 2] was 0.071 1/. The “AUC(0-∞)” value ([1]; IP 1 mg/kg, cassette, summary table) was 581.359 µg·h, the “AUMC(0-t)” value [1, 3] was 5267.479 **μg and the “AUMC(0-∞)” value [1, 3] was 9388.553 **μg. The CLz/F [1, 3] was 1.659 L/kg, the C_last [1, 3] was 6.542 µg and the “R_AUC(t/∞)” value [1, 3] was 90.625%. For the same compound, the “VRT(0-t)” value [1, 3] was 43.967 ^2, the “VRT(0-∞)” value [1, 3] was 134.645 ^2 and the Vz/F [1, 3] was 17.622 L/kg. For the same compound, the λz [1, 3] was 0.091 1/, the “AUC(0-∞)” value ([1]; IV 1 mg/kg, cassette, summary table) was 789.43 µg·h and the BA ([1]; PO 5 mg/kg vs IV 1 mg/kg, cassette) was 35.64%. For the same compound, the “AUMC(0-t)” value [1, 4] was 7719.114 **μg, the “AUMC(0-∞)” value [1, 4] was 23536.035 **μg and the CLz/F [1, 4] was 3.927 L/kg. The C_last [1, 4] was 32.311 µg, the “R_AUC(t/∞)” value [1, 4] was 62.325% and the “VRT(0-t)” value [1, 4] was 36.246 ^2. For the same compound, the “VRT(0-∞)” value [1, 4] was 301.909 ^2, the λz [1, 4] was 0.069 1/ and the “AUC(0-∞)” value ([1]; PO 5 mg/kg, cassette, summary table) was 1406.796 µg·h. It also gave an AUC(0-inf) ([1]; male, KM, mouse, plasma, ip, 1 mg/kg, IP 1 mg/kg, cassette, mean of animals, read-out: AUC(0-∞)) of 581 ng·h/mL, a Cmax ([1]; male, KM, mouse, plasma, ip, 1 mg/kg, IP 1 mg/kg, cassette, mean of animals, read-out: Cmax) of 61 ng/mL and a Tmax ([1]; male, KM, mouse, plasma, ip, 1 mg/kg, IP 1 mg/kg, cassette, mean of animals, read-out: Tmax) of 0.271 h. It also gave a Cmax ([1]; male, KM, mouse, plasma, ip, 1 mg/kg, IP 1 mg/kg, cassette, summary table, read-out: Cmax) of 61 ng/mL, a half-life ([1]; male, KM, mouse, plasma, ip, 1 mg/kg, IP 1 mg/kg, cassette, summary table, read-out: T1/2 (converted)) of 9.82 h and a Tmax ([1]; male, KM, mouse, plasma, ip, 1 mg/kg, IP 1 mg/kg, cassette, summary table, read-out: Tmax) of 0.271 h. It also gave an AUC(0-inf) ([1]; male, KM, mouse, plasma, iv, 1 mg/kg, IV 1 mg/kg, cassette, mean of animals, read-out: AUC(0-∞)) of 789 ng·h/mL, a Cmax ([1]; male, KM, mouse, plasma, iv, 1 mg/kg, IV 1 mg/kg, cassette, mean of animals, read-out: Cmax) of 278 ng/mL and a Tmax ([1]; male, KM, mouse, plasma, iv, 1 mg/kg, IV 1 mg/kg, cassette, mean of animals, read-out: Tmax) of 0.033 h. For the same compound, the Cmax ([1]; male, KM, mouse, plasma, iv, 1 mg/kg, IV 1 mg/kg, cassette, summary table, read-out: Cmax) was 278 ng/mL, the half-life ([1]; male, KM, mouse, plasma, iv, 1 mg/kg, IV 1 mg/kg, cassette, summary table, read-out: T1/2 (converted)) was 8.29 h and the Tmax ([1]; male, KM, mouse, plasma, iv, 1 mg/kg, IV 1 mg/kg, cassette, summary table, read-out: Tmax) was 0.033 h. It also gave an AUC(0-inf) ([1]; male, KM, mouse, plasma, po, 5 mg/kg, 5 mg/kg PO, cassette dosing, read-out: AUC0-inf) of 1410 ng·h/mL, a Cmax ([1]; male, KM, mouse, plasma, po, 5 mg/kg, 5 mg/kg PO, cassette dosing, read-out: Cmax (Mouse, P.O.)) of 87.6 ng/mL and a half-life ([1]; male, KM, mouse, plasma, po, 5 mg/kg, 5 mg/kg PO, cassette dosing, read-out: T1/2 (Mouse, P.O.) (converted)) of 11.4 h. For the same compound, the Tmax ([1]; male, KM, mouse, plasma, po, 5 mg/kg, 5 mg/kg PO, cassette dosing, read-out: Tmax (Mouse, P.O.)) was 0.87 h, the AUC(0-inf) ([1]; male, KM, mouse, plasma, po, 5 mg/kg, PO 5 mg/kg, cassette, mean of animals, read-out: AUC(0-∞)) was 1410 ng·h/mL and the Cmax ([1]; male, KM, mouse, plasma, po, 5 mg/kg, PO 5 mg/kg, cassette, mean of animals, read-out: Cmax) was 87.6 ng/mL. For the same compound, the Tmax ([1]; male, KM, mouse, plasma, po, 5 mg/kg, PO 5 mg/kg, cassette, mean of animals, read-out: Tmax) was 0.875 h, the Cmax ([1]; male, KM, mouse, plasma, po, 5 mg/kg, PO 5 mg/kg, cassette, summary table, read-out: Cmax) was 87.6 ng/mL and the half-life ([1]; male, KM, mouse, plasma, po, 5 mg/kg, PO 5 mg/kg, cassette, summary table, read-out: T1/2 (converted)) was 11.4 h. For the same compound, the Tmax ([1]; male, KM, mouse, plasma, po, 5 mg/kg, PO 5 mg/kg, cassette, summary table, read-out: Tmax) was 0.875 h, the concentration at 0.083 h [1, 5] was 55.3 ng/mL and 100 nM and the concentration at 0.25 h [1, 5] was 110 nM and 60.1 ng/mL. For the same compound, the concentration at 0.5 h [1, 5] was 90 nM and 50.3 ng/mL, the concentration at 1 h [1, 5] was 70 nM and 39.4 ng/mL and the concentration at 3 h [1, 5] was 60 nM and 31 ng/mL. The concentration at 5 h [1, 5] was 50 nM and 24.4 ng/mL, the concentration at 8 h [1, 5] was 40 nM and 21.8 ng/mL and the concentration at 24 h [1, 5] was 10 nM and 7.15 ng/mL. It also gave an AUC(0-t) [1, 6] of 478 ng·h/mL, an MRT last [1, 6] of 7.49 h and an MRT inf [1, 6] of 12.9 h. The Vd/F [1, 6] was 24.4 L/kg, the concentration at 0.033 h ([1]; male, KM, mouse, plasma, IV 1 mg/kg, cassette, 0.033 h) was 278 ng/mL and 520 nM and the concentration at 0.167 h ([1]; male, KM, mouse, plasma, IV 1 mg/kg, cassette, 0.167 h) was 270 nM and 148 ng/mL. The concentration at 0.5 h [1, 7] was 160 nM and 84.6 ng/mL, the concentration at 1 h [1, 7] was 170 nM and 89.6 ng/mL and the concentration at 3 h [1, 7] was 80 nM and 40.5 ng/mL. For the same compound, the concentration at 5 h [1, 7] was 50 nM and 28.3 ng/mL, the concentration at 8 h [1, 7] was 40 nM and 21.6 ng/mL and the concentration at 24 h [1, 7] was 30 nM and 15.1 ng/mL. It also gave a C0 [1, 8] of 327 ng/mL, an AUC(0-t) [1, 8] of 688 ng·h/mL and an MRT last [1, 8] of 6.4 h. The MRT inf [1, 8] was 9.25 h, the concentration at 0.083 h [1, 9] was 17.3 ng/mL and 30 nM and the concentration at 0.25 h [1, 9] was 80 nM and 42.6 ng/mL. The concentration at 0.5 h [1, 9] was 120 nM and 65.1 ng/mL, the concentration at 1 h [1, 9] was 160 nM and 84.4 ng/mL and the concentration at 3 h [1, 9] was 130 nM and 68.4 ng/mL. The concentration at 5 h [1, 9] was 120 nM and 63.3 ng/mL, the concentration at 8 h [1, 9] was 110 nM and 60.5 ng/mL and the concentration at 24 h [1, 9] was 40 nM and 22.2 ng/mL. It also gave an AUC(0-t) [1, 10] of 945 ng·h/mL, an MRT last [1, 10] of 6.82 h and an MRT inf [1, 10] of 15.7 h. It also gave a Vd/F [1, 10] of 58.1 L/kg.
